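A five-concentration, 48-hour dose response in 96-well plates underlies each endpoint, interpolated linearly between surrounding concentrations. GI50 = concentration required for 50% inhibition of growth. TGI: total growth inhibition.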
Experiments:
Experiment in all cases: growth of human tumour cells (NCI), 48 h
LOX IMVI melanoma = system: LOX IMVI melanoma
UACC-62 melanoma = system: UACC-62 melanoma
COLO 205 colon = system: COLO 205 colon
RPMI-8226 leukemia = system: RPMI-8226 leukemia
RXF 393 renal = system: RXF 393 renal
SF-539 CNS = system: SF-539 CNS
HOP-62 NSCLC = system: HOP-62 NSCLC
SF-295 CNS = system: SF-295 CNS
SF-268 CNS = system: SF-268 CNS
OVCAR-4 ovarian = system: OVCAR-4 ovarian
NCI-H522 lung = system: NCI-H522 lung
A498 renal = system: A498 renal
MOLT-4 leukemia = system: MOLT-4 leukemia
HCT-15 colon = system: HCT-15 colon
SK-OV-3 ovarian = system: SK-OV-3 ovarian
SW-620 colon = system: SW-620 colon
MCF7 breast = system: MCF7 breast
A549 NSCLC = system: A549 NSCLC
786-0 renal = system: 786-0 renal
T-47D breast = system: T-47D breast
K-562 leukemia = system: K-562 leukemia
M14 melanoma = system: M14 melanoma
NCI-H23 lung = system: NCI-H23 lung
SK-MEL-5 melanoma = system: SK-MEL-5 melanoma
BT-549 breast = system: BT-549 breast
MDA-MB-435 = system: MDA-MB-435
HCT-116 colon = system: HCT-116 colon
SN12C renal = system: SN12C renal
CCRF-CEM leukemia = system: CCRF-CEM leukemia
SK-MEL-2 melanoma = system: SK-MEL-2 melanoma
HOP-92 NSCLC = system: HOP-92 NSCLC
DU-145 prostate = system: DU-145 prostate
HT29 colon = system: HT29 colon
MALME-3M melanoma = system: MALME-3M melanoma
SNB-75 CNS = system: SNB-75 CNS
ACHN renal = system: ACHN renal
PC-3 prostate = system: PC-3 prostate
HS 578T breast = system: HS 578T breast
KM12 colon = system: KM12 colon
NCI-H460 lung = system: NCI-H460 lung
CAKI-1 renal = system: CAKI-1 renal
EKVX NSCLC = system: EKVX NSCLC
OVCAR-8 ovarian = system: OVCAR-8 ovarian
SR leukemia = system: SR leukemia
MDA-MB-231 breast = system: MDA-MB-231 breast
UACC-257 melanoma = system: UACC-257 melanoma
HCC-2998 colon = system: HCC-2998 colon
UO-31 renal = system: UO-31 renal
U251 CNS = system: U251 CNS
IGROV1 ovarian = system: IGROV1 ovarian
SK-MEL-28 melanoma = system: SK-MEL-28 melanoma
SNB-19 CNS = system: SNB-19 CNS
TK-10 renal = system: TK-10 renal
NCI/ADR-RES ovarian = system: NCI/ADR-RES ovarian
NCI-H226 lung = system: NCI-H226 lung
OVCAR-5 ovarian = system: OVCAR-5 ovarian
HL-60(TB) leukemia = system: HL-60(TB) leukemia

## O=c1c2cc(-c3ccc(F)cc3F)ccc2n(Nc2ccccc2)c(=O)n1-c1cccc(C(F)(F)F)c1
LOX IMVI melanoma
  GI50: 1.53 µM
  TGI: 3.12 µM
UACC-62 melanoma
  GI50: 0.337 µM
  TGI: 1.41 µM
COLO 205 colon
  GI50: 1.8 µM
  TGI: 3.27 µM
RPMI-8226 leukemia
  GI50: 0.46 µM
  TGI: 2.57 µM
RXF 393 renal
  GI50: 1.2 µM
  TGI: 2.84 µM
SF-539 CNS
  GI50: 1.57 µM
  TGI: 5.64 µM
HOP-62 NSCLC
  GI50: 1.8 µM
  TGI: 4.11 µM
SF-295 CNS
  GI50: 1.83 µM
  TGI: 3.82 µM
SF-268 CNS
  GI50: 1.7 µM
  TGI: 7.98 µM
OVCAR-4 ovarian
  GI50: 2.67 µM
  TGI: > 100 µM
NCI-H522 lung
  GI50: 0.44 µM
  TGI: 2.41 µM
A498 renal
  GI50: 0.358 µM
  TGI: 1.25 µM
MOLT-4 leukemia
  GI50: 1.79 µM
  TGI: 5.66 µM
HCT-15 colon
  GI50: 0.812 µM
  TGI: 2.55 µM
SK-OV-3 ovarian
  GI50: 1.27 µM
  TGI: 3.01 µM
SW-620 colon
  GI50: 1.51 µM
  TGI: 3.55 µM
MCF7 breast
  GI50: 1.81 µM
  TGI: 7.44 µM
A549 NSCLC
  GI50: 2.96 µM
  TGI: 12.7 µM
786-0 renal
  GI50: 1.86 µM
  TGI: 3.83 µM
T-47D breast
  GI50: 1.4 µM
  TGI: 5.37 µM
K-562 leukemia
  GI50: 0.717 µM
  TGI: > 100 µM
M14 melanoma
  GI50: 1.65 µM
  TGI: 4.17 µM
NCI-H23 lung
  GI50: 1.06 µM
  TGI: 4.32 µM
SK-MEL-5 melanoma
  GI50: 0.354 µM
  TGI: 1.35 µM
BT-549 breast
  GI50: 1.12 µM
  TGI: 2.53 µM
MDA-MB-435
  GI50: 1.52 µM
  TGI: 5.04 µM
HCT-116 colon
  GI50: 1.03 µM
  TGI: 2.34 µM
SN12C renal
  GI50: 1 µM
  TGI: 5.01 µM
CCRF-CEM leukemia
  GI50: 1.97 µM
  TGI: 9.76 µM
SK-MEL-2 melanoma
  GI50: 0.532 µM
  TGI: 2.1 µM
HOP-92 NSCLC
  GI50: 0.19 µM
  TGI: 0.679 µM
DU-145 prostate
  GI50: 2.56 µM
  TGI: 61.7 µM
HT29 colon
  GI50: 2.84 µM
  TGI: 7.74 µM
MALME-3M melanoma
  GI50: 1.5 µM
  TGI: 5.05 µM
SNB-75 CNS
  GI50: 1.4 µM
  TGI: 4.86 µM
ACHN renal
  GI50: 1.81 µM
  TGI: 5.31 µM
PC-3 prostate
  GI50: 1.35 µM
  TGI: 5.19 µM
HS 578T breast
  GI50: 1.06 µM
  TGI: 4.2 µM
KM12 colon
  GI50: 2.17 µM
  TGI: 5.66 µM
NCI-H460 lung
  GI50: 0.775 µM
  TGI: 4.39 µM
CAKI-1 renal
  GI50: 1.51 µM
  TGI: 4.37 µM
EKVX NSCLC
  GI50: 2.35 µM
  TGI: 7.91 µM
OVCAR-8 ovarian
  GI50: 1.23 µM
  TGI: 3.72 µM
SR leukemia
  GI50: 1.11 µM
  TGI: 4.53 µM
MDA-MB-231 breast
  GI50: 1.78 µM
  TGI: 5.62 µM
UACC-257 melanoma
  GI50: 0.963 µM
  TGI: 3.82 µM
HCC-2998 colon
  GI50: 2.55 µM
  TGI: 6.84 µM
UO-31 renal
  GI50: 1.98 µM
  TGI: 5.96 µM
U251 CNS
  GI50: 1.74 µM
  TGI: 10.3 µM
IGROV1 ovarian
  GI50: 1.91 µM
  TGI: 13.3 µM
SK-MEL-28 melanoma
  GI50: 1.28 µM
  TGI: 4.69 µM
SNB-19 CNS
  GI50: 0.931 µM
  TGI: > 100 µM
TK-10 renal
  GI50: 3.98 µM
  TGI: 8.5 µM
NCI/ADR-RES ovarian
  GI50: 1.91 µM
  TGI: 7.74 µM
NCI-H226 lung
  GI50: 1.32 µM
  TGI: 3.42 µM
OVCAR-5 ovarian
  GI50: 3.15 µM
  TGI: 56.3 µM

## O=C(NCCN1CCCC1)c1ccc(-c2nc3ccc4[nH]ncc4c3c3c2CCCC3)cc1
LOX IMVI melanoma
  GI50: 0.622 µM
  TGI: 1.36 µM
UACC-62 melanoma
  GI50: 1.2 µM
  TGI: 5.6 µM
COLO 205 colon
  GI50: 0.625 µM
  TGI: 1.49 µM
RPMI-8226 leukemia
  GI50: 0.871 µM
  TGI: 2.27 µM
RXF 393 renal
  GI50: 0.241 µM
  TGI: 0.955 µM
SF-539 CNS
  GI50: 0.515 µM
  TGI: 1.17 µM
HOP-62 NSCLC
  GI50: 0.497 µM
  TGI: 2.14 µM
SF-295 CNS
  GI50: 1.06 µM
  TGI: 4.16 µM
SF-268 CNS
  GI50: 0.703 µM
  TGI: 1.79 µM
OVCAR-4 ovarian
  GI50: 1.05 µM
  TGI: 5.08 µM
NCI-H522 lung
  GI50: 0.289 µM
  TGI: 1.05 µM
A498 renal
  GI50: 0.193 µM
  TGI: 0.911 µM
MOLT-4 leukemia
  GI50: 0.486 µM
  TGI: 2.64 µM
HCT-15 colon
  GI50: 1.91 µM
  TGI: 7.43 µM
SK-OV-3 ovarian
  GI50: 0.232 µM
  TGI: 2.17 µM
SW-620 colon
  GI50: 0.607 µM
  TGI: 3.14 µM
MCF7 breast
  GI50: 0.807 µM
  TGI: 4.15 µM
A549 NSCLC
  GI50: 1.09 µM
  TGI: 5.54 µM
786-0 renal
  GI50: 0.58 µM
  TGI: 1.35 µM
T-47D breast
  GI50: 1.07 µM
  TGI: 6.1 µM
K-562 leukemia
  GI50: 0.76 µM
  TGI: 3.88 µM
M14 melanoma
  GI50: 0.729 µM
  TGI: 1.55 µM
NCI-H23 lung
  GI50: 0.802 µM
  TGI: 2.46 µM
SK-MEL-5 melanoma
  GI50: 1.1 µM
  TGI: 2.53 µM
BT-549 breast
  GI50: 0.384 µM
  TGI: 1.16 µM
MDA-MB-435
  GI50: 0.654 µM
  TGI: 3.89 µM
HCT-116 colon
  GI50: 0.252 µM
  TGI: 2.02 µM
SN12C renal
  GI50: 0.882 µM
  TGI: 4.46 µM
CCRF-CEM leukemia
  GI50: 0.497 µM
  TGI: 3.27 µM
SK-MEL-2 melanoma
  GI50: 0.726 µM
  TGI: 1.88 µM
HOP-92 NSCLC
  GI50: 0.0997 µM
  TGI: 0.864 µM
DU-145 prostate
  GI50: 0.677 µM
  TGI: 5.34 µM
HT29 colon
  GI50: 0.996 µM
  TGI: 3.51 µM
MALME-3M melanoma
  GI50: 0.769 µM
  TGI: 1.65 µM
SNB-75 CNS
  GI50: 0.259 µM
  TGI: 1.85 µM
ACHN renal
  GI50: 1.07 µM
  TGI: 5.89 µM
PC-3 prostate
  GI50: 0.682 µM
  TGI: 2.77 µM
HS 578T breast
  GI50: 0.189 µM
  TGI: 1.39 µM
KM12 colon
  GI50: 0.237 µM
  TGI: 2.91 µM
NCI-H460 lung
  GI50: 0.628 µM
  TGI: 1.57 µM
CAKI-1 renal
  GI50: 0.199 µM
  TGI: 4.38 µM
EKVX NSCLC
  GI50: 0.85 µM
  TGI: 5.15 µM
OVCAR-8 ovarian
  GI50: 0.798 µM
  TGI: 3.16 µM
SR leukemia
  GI50: 0.0941 µM
  TGI: 1.9 µM
MDA-MB-231 breast
  GI50: 0.796 µM
  TGI: 2.43 µM
UACC-257 melanoma
  GI50: 1.05 µM
  TGI: 2.44 µM
HCC-2998 colon
  GI50: 0.87 µM
  TGI: 2.82 µM
UO-31 renal
  GI50: 1.4 µM
  TGI: 6.34 µM
U251 CNS
  GI50: 0.717 µM
  TGI: 2.25 µM
IGROV1 ovarian
  GI50: 0.351 µM
  TGI: 4.06 µM
SK-MEL-28 melanoma
  GI50: 0.919 µM
  TGI: 2.68 µM
SNB-19 CNS
  GI50: 1.13 µM
  TGI: 5.06 µM
TK-10 renal
  GI50: 0.443 µM
  TGI: 7.36 µM
NCI/ADR-RES ovarian
  GI50: 10.7 µM
  TGI: 50 µM
NCI-H226 lung
  GI50: 0.716 µM
  TGI: 5.25 µM
OVCAR-5 ovarian
  GI50: 1.39 µM
  TGI: 4.44 µM
HL-60(TB) leukemia
  GI50: 0.978 µM
  TGI: 2.32 µM
